Experimental data reported in patent EP4023291A1, “FAT METABOLISM PROMOTER” (Asahi Group Holdings, Ltd., priority 2019, dated 2021).

Experiments:
non-transformed cells = test: Test 9: TRPA1 activity test, non-transformed cells; assay type: cell-based, human; conditions: maximum values, average ± standard deviation; concentration after adding per Table 7 (10.2-28.2 ppm)
Procedure: Also for HEK293T cells without transfer of the TRPA1 gene (hereinafter, also referred to as "non-transformed cells"), as a reference, 50 µL of the test solution of Example 9 and 50 µL of the test solution of Comparative Example 6 were added with the same method as performed for the cells with forced expression of TRPA1, and ΔRFU was determined.
(§1) In the present test, test solutions of Examples 13 to 28 and Comparative Examples 9 to 14 described later were used in place of the test solutions used in First Testing Method of Test 5. Except that, the amount of change in RFU before and after addition of each test solution (ΔRFU) was determined for cells with forced expression of TRPA1 and non-transformed cells with the same method as First Testing Method of Test 5.
The test solutions of Examples 13 to 28 and Comparative Examples 10 to 14 used in the present test were each obtained by adding a compound listed in Table 7 into HEPES buffer. The octanol/water partition coefficient (log Pow) of each compound listed in Table 7 was calculated with XlogP (Shanghai Institute of Organic Chemistry, Chinese Academy of Sciences, http://WWW.sio-ccbg.ac.cn/software/xlogp3/), which is software using the XlogP3 algorithm. Each test solution was added as 50-µL portions to wells, and the concentrations of the compounds were set to concentrations shown in Table 7. HEPES buffer was used as the test solution of Comparative Example 9 for a negative control (N.C.), and added as 50-µL portions to wells.
Table 7 and Figure 18 show average ± standard deviation of maximum values of ΔRFU. In the present test, SoftMax Pro Vr. 6 (manufactured by Molecular Devices, LLC.) and Excel (manufactured by Microsoft Corporation) were used for data analysis.

TRPA1 = target: T1, TRPA1 (Homo sapiens, UniProt O75762); test: Test 9: TRPA1 activity test, cells with forced expression of TRPA1; assay type: cell-based; conditions: for Δ RFU in cells with forced expression of TRPA1: maximum values, average ± standard deviation, concentration after adding per Table 7 (10.2-28.2 ppm); for Δ RFU in cells with forced expression of TRPA1 / Δ RFU in non-transformed cells: ratio of maximum ΔRFU values, concentration after adding per Table 7
T1 construct: expressed in transfected cells; host or cells: HEK293T cells, transient transfection with Lipofectamine 2000
Procedure: In the present test, first, human embryonic HEK293T cells were first suspended in DMEM medium to which penicillin-streptomycin (manufactured by Thermo Fisher Scientific, Inc.) and fetal bovine serum (manufactured by Sigma-Aldrich Co. LLC) were added to reach concentrations of 100 Unit/mL, 100 µg/mL, and 10%, respectively, seeded in a 96-well plate at a volume of 100 µL/well, and cultured under conditions of 5% CO2 and 37°C until a cell density reached 70 to 90%.
Thereafter, the DMEM medium in each well was completely removed, to which OptiMEM medium (manufactured by Thermo Fisher Scientific, Inc.) containing the gene transfer reagent Lipofectamine 2000 (manufactured by Thermo Fisher Scientific, Inc.) and a hTRPA1 gene expression plasmid was added at a volume of 50 µL/well. Then, culture was performed under conditions of 37°C and 5% CO2 for approximately 24 hours to transfer the TRPA1 gene into the HEK293T cells. The contents of Lipofectamine 2000 and the hTRPA1 gene expression plasmid per 50 µL of the OptiMEM medium were 0.3 µL and 400 ng, respectively. The TRPA1 gene can be confirmed with a DNA database such as GenBank.
When the density of the HEK293T cells transfected in the described manner (hereinafter, also referred to as "cells with forced expression of TRPA1") reached 90 to 100%, FLIPR Calcium 6 Assay Kit (manufactured by Molecular Devices, LLC.), a calcium-sensitive fluorescent dye, was added at a volume of 50 µL/well, and culture was performed under conditions of 37°C and 5% CO2 for 2 hours. Here, the expression of TRPA1 on cell membranes was confirmed by response to cinnamaldehyde (manufactured by Wako Pure Chemical Industries, Ltd.), which is a known TRPA1 ligand. DMSO was used for dilution of cinnamaldehyde, and the DMSO concentration in each well was set to 0.1% in view of cytotoxicity.
Ethyl caproate was added to HEPES buffer (10 mM HEPES, 130 mM NaCl, 5 mM KCl, 10 mM glucose, 2 mM CaCl2·2H2O, 1.2 mM MgCl2·6H2O, pH = 7.40), and thus a test solution of Example 9 containing ethyl caproate in a concentration of 255 ppm was obtained. For a negative control (N.C.), HEPES buffer was used as a test solution of Comparative Example 6. Measurement of fluorescence intensity for the cells with forced expression of TRPA1 was initiated, and, 20 seconds thereafter, 50-µL portions of each of the test solutions prepared were added to three wells. After the lapse of a predetermined period of time, the measurement of fluorescence intensity was completed, and ratios of fluorescence intensity at each time after addition of a test solution as the average of fluorescence intensity before addition of a test solution was assumed as 1 (hereinafter, also referred to as "RFU (relative fluorescence units)") were determined from measurements of fluorescence intensity. Further, change rates in RFU before and after addition of a test solution (hereinafter, also referred to as "ΔRFU") were determined at each time after addition of a test solution. Fluorescence intensity was measured by using a FlexStation 3 (manufactured by Molecular Devices, LLC.). The measurement of fluorescence intensity was performed at room temperature, and each test solution was used for adding to wells at room temperature, too.
as §1
The test solutions of Examples 13 to 28 and Comparative Examples 10 to 14 used in the present test were each obtained by adding a compound listed in Table 7 into HEPES buffer. […]

T1 sequence (O75762 whole entry): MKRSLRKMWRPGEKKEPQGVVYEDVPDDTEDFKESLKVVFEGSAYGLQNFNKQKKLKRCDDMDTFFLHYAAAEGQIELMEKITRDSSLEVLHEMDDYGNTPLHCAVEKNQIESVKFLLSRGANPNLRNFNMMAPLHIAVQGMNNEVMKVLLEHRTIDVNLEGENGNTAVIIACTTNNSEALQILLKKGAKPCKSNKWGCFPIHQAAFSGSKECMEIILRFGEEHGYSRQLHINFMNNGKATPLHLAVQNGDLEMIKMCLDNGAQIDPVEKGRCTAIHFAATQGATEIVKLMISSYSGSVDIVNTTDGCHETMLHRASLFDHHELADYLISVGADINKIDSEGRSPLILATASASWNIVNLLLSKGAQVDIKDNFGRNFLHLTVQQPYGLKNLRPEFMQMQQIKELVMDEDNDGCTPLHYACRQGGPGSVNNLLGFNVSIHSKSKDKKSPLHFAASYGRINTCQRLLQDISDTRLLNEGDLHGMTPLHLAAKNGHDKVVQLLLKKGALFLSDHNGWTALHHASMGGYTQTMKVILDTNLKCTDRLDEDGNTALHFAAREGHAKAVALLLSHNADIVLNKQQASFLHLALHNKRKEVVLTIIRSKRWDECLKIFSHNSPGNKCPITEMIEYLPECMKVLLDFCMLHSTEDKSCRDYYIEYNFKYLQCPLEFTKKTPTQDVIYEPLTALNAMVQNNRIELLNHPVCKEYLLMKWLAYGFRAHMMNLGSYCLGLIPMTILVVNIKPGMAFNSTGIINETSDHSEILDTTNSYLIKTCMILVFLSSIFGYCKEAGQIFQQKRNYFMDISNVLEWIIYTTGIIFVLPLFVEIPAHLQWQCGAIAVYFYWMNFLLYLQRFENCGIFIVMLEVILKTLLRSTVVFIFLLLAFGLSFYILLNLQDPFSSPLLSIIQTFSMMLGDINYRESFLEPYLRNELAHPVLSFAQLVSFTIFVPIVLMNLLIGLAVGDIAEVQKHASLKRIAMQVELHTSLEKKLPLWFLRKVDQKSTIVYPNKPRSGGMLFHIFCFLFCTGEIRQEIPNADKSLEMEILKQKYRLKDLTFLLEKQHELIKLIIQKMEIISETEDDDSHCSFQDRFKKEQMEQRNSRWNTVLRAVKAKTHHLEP

Structure (SMILES)	Δ RFU in non-transformed cells (non-transformed cells)	Δ RFU in cells with forced expression of TRPA1 (TRPA1)	Δ RFU in cells with forced expression of TRPA1 / Δ RFU in non-transformed cells (TRPA1)
CC(=O)OCCC(C)C [Example 13, Isoamyl acetate]	0.2 ± 0.0	0.7 ± 0.0	3.4
CCCCCC(=O)OCCC(C)C [Example 25, Isoamyl caproate]	0.2 ± 0.0	3.0 ± 0.2	16.2
CCCCCCCOC(C)=O [Example 16, Heptyl acetate]	0.0 ± 0.0	3.5 ± 0.7	127.8
CCCCCOC(=O)CCCCC [Example 26, Pentyl caproate]	0.3 ± 0.1	3.5 ± 1.1	12.8
CCC(C)COC(C)=O (stereo not drawn) [Example 15, 2-Methylbutyl acetate]	0.2 ± 0.0	0.6 ± 0.0	2.9
CCCCCOC(C)=O [Example 14, Pentyl acetate]	0.1 ± 0.0	0.8 ± 0.1	12.1
CCCCCC(=O)OCC [Example 22, Ethyl caproate]	0.2 ± 0.0	2.2 ± 0.8	12.7
CCOC(=O)CCC(C)C [Example 20, Ethyl 4-methylvalerate]	0.1 ± 0.0	2.0 ± 0.1	27.6
CCOC(C)=O [Comparative Example 10, Ethyl acetate, reference compound]	0.3 ± 0.0	0.2 ± 0.1	0.7
CCCCCC(=O)OCCC [Example 23, Propyl caproate]	0.2 ± 0.0	2.7 ± 1.1	12.9
CCCCC(=O)OCC [Example 19, Ethyl valerate]	0.1 ± 0.0	0.6 ± 0.1	5.6
CCCCCCCC(=O)OCC [Example 28, Ethyl caprylate]	0.1 ± 0.0	2.3 ± 0.4	19.0
CCCCCCCC(=O)OCCC(C)C [Comparative Example 13, Isoamyl caprylate, reference compound]	0.3 ± 0.0	0.2 ± 0.1	0.6
CCOC(=O)CC [Comparative Example 12, Ethyl propionate, reference compound]	0.3 ± 0.1	0.3 ± 0.0	0.9
CCCCCC(=O)OCCCC [Example 24, Butyl caproate]	0.1 ± 0.0	4.1 ± 0.3	29.1
CCCCCCCCCCCC(=O)OCC [Comparative Example 14, Ethyl laurate, reference compound]	0.2 ± 0.0	0.2 ± 0.0	0.8
CCCCCCCC(=O)OC [Example 27, Methyl caprylate]	0.1 ± 0.0	0.7 ± 0.1	8.3
CCCCCC(=O)OC [Example 21, Methyl caproate]	0.2 ± 0.0	1.2 ± 0.2	5.4
CCCOC(C)=O [Comparative Example 11, Propyl acetate, reference compound]	0.3 ± 0.0	0.2 ± 0.0	0.8
CCCC(=O)OCCC(C)C [Example 18, Isoamyl butyrate]	0.1 ± 0.0	2.0 ± 0.4	19.3
CCC(=O)OCCC(C)C [Example 17, Isoamyl propionate]	0.1 ± 0.0	1.5 ± 0.5	12.4
